Results on four compounds are retold here after ChEMBL document CHEMBL5518169, “Discovery of a 1,6-naphthyridin-4-one-based AXL inhibitor with improved pharmacokinetics and enhanced in vivo antitumor efficacy” (Eur J Med Chem, 2024).

Data set [1] in a line: Toxicity in mouse xenografted with mouse BaF3/TEL-AXL cells assessed as body weight loss at 50 mg/kg, po administered for 7 days. The settings on record: in vivo, 168 h, time 7 day. In kind it is organism-based.
A short description of data set [2]: Antitumor activity against mouse BaF3/TEL-AXL cells xenografted in mouse assessed as tumor growth inhibition at 50 mg/kg, po administered for 7 days. Format: functional. The note with it: 168 h, time 7 day, read-out: TGI.
For data set [3], the target named is T1, Tyrosine-protein kinase receptor UFO (Homo sapiens, UniProt P30530).
T1 sequence (P30530 whole entry): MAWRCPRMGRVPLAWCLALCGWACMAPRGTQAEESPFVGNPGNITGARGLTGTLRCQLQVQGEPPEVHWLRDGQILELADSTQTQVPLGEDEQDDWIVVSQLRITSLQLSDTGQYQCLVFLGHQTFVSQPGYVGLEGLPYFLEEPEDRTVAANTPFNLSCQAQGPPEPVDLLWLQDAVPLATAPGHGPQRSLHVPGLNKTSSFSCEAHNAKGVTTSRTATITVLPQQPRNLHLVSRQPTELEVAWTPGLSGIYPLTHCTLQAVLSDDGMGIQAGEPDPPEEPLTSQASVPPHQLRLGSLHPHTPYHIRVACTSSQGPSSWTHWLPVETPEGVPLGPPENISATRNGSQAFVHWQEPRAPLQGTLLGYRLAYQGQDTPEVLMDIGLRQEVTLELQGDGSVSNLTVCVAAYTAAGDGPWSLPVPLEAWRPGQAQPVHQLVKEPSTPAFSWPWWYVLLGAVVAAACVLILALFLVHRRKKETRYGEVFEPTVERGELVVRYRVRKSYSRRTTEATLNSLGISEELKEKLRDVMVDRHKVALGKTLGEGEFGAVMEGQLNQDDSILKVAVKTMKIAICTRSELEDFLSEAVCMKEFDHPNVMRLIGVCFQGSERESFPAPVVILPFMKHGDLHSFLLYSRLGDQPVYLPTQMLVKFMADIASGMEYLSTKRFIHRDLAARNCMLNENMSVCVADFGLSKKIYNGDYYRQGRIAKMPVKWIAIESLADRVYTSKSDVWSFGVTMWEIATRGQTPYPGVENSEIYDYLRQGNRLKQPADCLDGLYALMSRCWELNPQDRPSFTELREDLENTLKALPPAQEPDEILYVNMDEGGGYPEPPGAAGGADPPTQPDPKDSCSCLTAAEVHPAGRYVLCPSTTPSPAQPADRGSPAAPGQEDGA
Description: Inhibition of AXL (unknown origin) by ELISA analysis

For data set [4], the system named is MKN-45. Description: cells. The settings on record: Homo sapiens, MKN-45, 72 h.
Description: Antiproliferative activity against human MKN-45 cells assessed as inhibition of cell proliferation incubated for 72 hrs by CCK-8 assay
Data set [5] in a line: Tmax in Sprague-Dawley rat at 3 mg/kg, po measured upto 24 hrs by LC-MS/MS analysis. Format: ADME, organism-based. The note with it: in vivo.
Data set [6] in a line: Half life in Sprague-Dawley rat at 3 mg/kg, po measured upto 24 hrs by LC-MS/MS analysis. The note with it: in vivo. Format: ADME, organism-based.
The nature of data set [7]: Cmax in Sprague-Dawley rat at 3 mg/kg, po measured upto 24 hrs by LC-MS/MS analysis. The settings on record: in vivo. Format: ADME, organism-based.
A short description of data set [8]: Metabolic stability in human liver microsomes assessed as parent compound remaining preincubated with compound for 10 mins followed by NADPH addition and measured after 60 mins by LC-MS/MS analysis. Format: ADME, Microsome. The note with it: time 70 min, read-out: Stability.
A short description of data set [9]: MRT (0 to infinity) in Sprague-Dawley rat at 3 mg/kg, po measured upto 24 hrs by LC-MS/MS analysis. The settings on record: in vivo. In kind it is ADME, organism-based.
Data set [10] in a line: Metabolic stability in human liver microsomes assessed as half life preincubated with compound for 10 mins followed by NADPH addition and measured after 60 mins by LC-MS/MS analysis. In kind it is ADME, Microsome. The note with it: time 70 min. In general terms: Liver microsomes are a subcellular fraction often used to study metabolism.
The nature of data set [11]: cells. The settings on record: Mus musculus, BaF3/TEL-AXL, 72 h.
Description: Antiproliferative activity against mouse BaF3/TEL-AXL cells assessed as inhibition of cell proliferation incubated for 72 hrs by CCK-8 assay
The nature of data set [12]: AUC (0 to infinity) in Sprague-Dawley rat at 3 mg/kg, po measured upto 24 hrs by LC-MS/MS analysis. Format: ADME, organism-based. The settings on record: in vivo.
The subject of data set [13] is BaF3/TEL-AXL. Description: Antitumor activity against mouse BaF3/TEL-AXL cells xenografted in mouse assessed as tumor regression at 50 to 100 mg/kg, po administered for 7 days. In kind it is functional, organism-based. The settings on record: dose 50-100 mg/kg, time 7.0 day.
Data set [14] is described as follows: Antitumor activity against mouse BaF3/TEL-AXL cells xenografted in mouse assessed as tumor growth inhibition at 25 mg/kg, po administered for 7 days. In kind it is functional. The settings on record: 168 h, time 7 day, read-out: TGI.
The target of data set [15] is RAC-alpha serine/threonine-protein kinase (Mus musculus) (UniProt P31750). The experiment in a line: Inhibition of AKT phosphorylation in mouse BaF3/TEL-AXL cells incubated for 2 hrs by Western blot analysis. Format: cell-based. The note with it: dose 2-500 nM. (In general: Immunoblotting shows a protein as a band on a membrane.)
A short description of data set [16]: Toxicity in mouse xenografted with mouse BaF3/TEL-AXL cells assessed as body weight loss at 25 to 100 mg/kg, po administered for 7 days. In kind it is organism-based. The settings on record: in vivo, 168 h, dose 25-100 mg/kg, time 7 day.
Data set [17] concerns the target T2, Tyrosine-protein kinase receptor UFO (Mus musculus) (UniProt Q00993).
T2 sequence (whole entry): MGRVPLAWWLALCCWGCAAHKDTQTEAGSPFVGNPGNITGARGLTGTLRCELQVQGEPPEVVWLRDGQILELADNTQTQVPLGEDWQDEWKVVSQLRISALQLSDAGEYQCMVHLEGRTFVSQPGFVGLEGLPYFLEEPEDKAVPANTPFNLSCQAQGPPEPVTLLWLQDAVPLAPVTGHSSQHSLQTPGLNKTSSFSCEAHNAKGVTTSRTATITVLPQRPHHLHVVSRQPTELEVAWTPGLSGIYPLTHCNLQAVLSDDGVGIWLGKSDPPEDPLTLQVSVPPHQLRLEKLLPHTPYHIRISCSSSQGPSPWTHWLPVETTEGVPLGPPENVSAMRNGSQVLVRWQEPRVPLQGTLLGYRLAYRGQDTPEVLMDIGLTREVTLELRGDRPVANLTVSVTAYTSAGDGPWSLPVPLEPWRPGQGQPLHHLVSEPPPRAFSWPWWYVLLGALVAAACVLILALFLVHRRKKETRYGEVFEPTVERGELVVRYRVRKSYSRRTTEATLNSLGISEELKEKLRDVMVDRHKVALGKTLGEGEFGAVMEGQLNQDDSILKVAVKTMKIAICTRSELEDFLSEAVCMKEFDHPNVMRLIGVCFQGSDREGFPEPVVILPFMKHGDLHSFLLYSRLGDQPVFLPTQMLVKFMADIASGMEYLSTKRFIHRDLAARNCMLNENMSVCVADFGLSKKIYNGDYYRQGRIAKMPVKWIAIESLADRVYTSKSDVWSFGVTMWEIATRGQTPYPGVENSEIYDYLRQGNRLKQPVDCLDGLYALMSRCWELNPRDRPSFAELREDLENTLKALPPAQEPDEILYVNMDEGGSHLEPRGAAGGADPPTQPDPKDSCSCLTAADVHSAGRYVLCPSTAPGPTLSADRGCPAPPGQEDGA
The experiment in a line: Inhibition of AXL phosphorylation in mouse BaF3/TEL-AXL cells incubated for 2 hrs by Western blot analysis. Format: cell-based. The settings on record: dose 2-500 nM.

Data set [18] is described as follows: Antitumor activity against mouse BaF3/TEL-AXL cells xenografted in mouse assessed as tumor growth inhibition at 100 mg/kg, po administered for 7 days. Format: functional. The settings on record: 168 h, time 7 day, read-out: TGI.

Molecules are shown by their SMILES. Calls of active or inactive are those of the source. No cut-off for these calls is given here.

For orientation: IC50 means the concentration at which inhibition is half-maximal. A low value points to greater potency in that assay. Usually Tmax stands for the time at which the peak concentration occurs. Broadly, the half-life is how long it takes for the measured level to halve. As usually defined, the Cmax is the highest concentration seen after dosing. The MRT inf is the average time that molecules of a dose stay in the body. The term AUC(0-inf) denotes total exposure, with the tail of the curve extrapolated. A lower AUC(0-inf) goes with less exposure.

Chain of RAC-alpha serine/threonine-protein kinase (Mus musculus) (P31750 whole entry): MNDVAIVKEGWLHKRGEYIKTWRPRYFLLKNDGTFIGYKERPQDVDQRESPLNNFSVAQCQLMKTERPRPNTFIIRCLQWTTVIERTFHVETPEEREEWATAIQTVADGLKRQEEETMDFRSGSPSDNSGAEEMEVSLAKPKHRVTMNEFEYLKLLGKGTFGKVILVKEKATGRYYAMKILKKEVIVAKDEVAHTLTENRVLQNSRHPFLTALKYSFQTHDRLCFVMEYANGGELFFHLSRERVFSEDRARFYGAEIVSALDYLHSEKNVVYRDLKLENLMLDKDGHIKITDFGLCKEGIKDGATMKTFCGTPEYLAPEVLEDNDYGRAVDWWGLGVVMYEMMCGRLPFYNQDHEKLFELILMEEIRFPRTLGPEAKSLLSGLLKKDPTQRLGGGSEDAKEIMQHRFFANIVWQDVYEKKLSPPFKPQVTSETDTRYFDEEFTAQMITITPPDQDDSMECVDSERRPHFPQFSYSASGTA

Regarding `Nc1nc(Nc2ccc3c(c2)CC[C@@H](N2CCCC2)CC3)nn1-c1cc2c(nn1)-c1ccccc1CCC2` [BEMCENTINIB], the Activity result in data set [1] is given as “Non-Toxic”. For the same compound, in data set [2], the inhibition in vivo at 50 mg/kg was 107%.

Regarding `CC(C)n1cc(C(=O)Nc2cc(F)c(-c3c[nH]c4ncnc(N)c34)cc2F)c(=O)c(-c2ccc(F)cc2)c1`, the IC50 in data set [3] is less than 0.2 nM.

With `CC(C)n1cc(-c2ccc(F)cc2)c(=O)c2c(Nc3ccc(-c4cn(C)c5ncnc(N)c45)c(F)c3)nccc21`, the IC50 in data set [4] is greater than 100 nM; in data set [11], 1 nM. Besides, in data set [5], the Tmax was 1.5 h. Also, the half-life in [6] was 229 min; in data set [10], 45.9 min. Further, the Cmax in data set [7] is 187 ng/mL. For the same compound, the remaining at 1 h in data set [8] is 47%. The compound also returned an MRT inf in [9] of 5.96 h. The same compound yielded an AUC(0-inf) in data set [12] of 1300 ng·h/mL.

`CC(C)n1cc(-c2ccc(F)cc2)c(=O)c2c(Nc3ccc(-c4cc(-c5cnn(C)c5)cnc4N)c(F)c3)nccc21`: the outcome in data set [13] was Active. For the same compound, the IC50 in data set [4] is greater than 100 nM; in [11] it was less than 1 nM. Further, the inhibition in vivo at 25 mg/kg in data set [14] stood at 89.8%. The inhibition entry in data set [15] and in data set [17] was “Dose-Dependent Effect” in each case. The Tmax in data set [5] is 2 h. The results for the half-life in data set [6] and in [10] were 605 min and 154 min, respectively. In addition, the highest level in data set [7] (Cmax) was 2910 ng/mL. In addition, the remaining at 1 h in [8] was determined as 76.3%. Besides, the mean residence time MRT inf in data set [9] amounted to 16.5 h. Further, in [16], the Activity entry is “Non-Toxic”. The inhibition in vivo at 50 mg/kg in [2] was found to be 104%. In addition, the inhibition in vivo at 100 mg/kg in [18] turned out to be 105%. In data set [12], this compound showed an AUC(0-inf) of 59800 ng·h/mL.
